According to patent US20240239767A1 (AstraZeneca AB, priority 2022, published 2024):

Tests used:
[1] = biological target: GSK3b (Glycogen synthase kinase-3 beta) (Homo sapiens, UniProt P49841); test: Assay 6 - GSK3b assay (ThermoFisher, FRET Z-Lyte); assay type: biochemical; details: geometric mean; ATP Conc: 10.000 μM; read-out: Assay 6 (GSK3B FRET-Z-Lyte CR) GMean IC50 (μM) ATP Conc: 10.000
Description: This assay measures the activity of the compounds at GSK3b (Glycogen synthase kinase-3 beta).
The test compounds were screened in 1% DMSO (final) in the well. For 10-point titrations, 3-fold serial dilutions are conducted from the starting concentration of 10 μM.
• Bar-coded Corning, low volume NBS, black 384-well plate • 1. 2.5 μL—4× Test Compound or 100 nL 100× plus 2.4 μL kinase buffer • 2. 5 μL—2× Peptide/Kinase Mixture • 3. 2.5 μL—4× ATP Solution • 4. 30-second plate shake • 5. 60-minute Kinase Reaction incubation at room temperature • 6. 5 μL—Development Reagent Solution • 7. 30-second plate shake • 8. 60-minute Development Reaction incubation at room temperature • 9. Read on fluorescence plate reader and analyse the data
In step 2, the 2× GSK3β (GSK3 beta)/Ser/Thr (Glycogen synthase kinase-3 beta/Serine/Threonine) 09 mixture is prepared in 50 mM HEPES (4-(2-hydroxyethyl)-1-piperazineethanesulfonic acid) pH 7.5, 0.01% BRIJ-35, 10 mM MgCl2, 1 mM EGTA (egtazic acid). The final 10 μL Kinase Reaction consists of 0.22-0.92 ng GSK3β (GSK3 beta) and 2 μM Ser/Thr 09 in 50 mM HEPES pH 7.5, 0.01% BRIJ-35, 10 mM MgCl2, 1 mM EGTA.
In step 3 the ATP Solution is diluted to a 4× working concentration in Kinase Buffer (50 mM HEPES pH 7.5, 0.01% BRIJ-35, 10 mM MgCl2, 1 mM EGTA).
In Step 6 the Development Reagent is diluted 1:512 in Development Buffer (10× Novel PKC Lipid Mix: 2 mg/mL Phosphatidyl Serine, 0.2 mg/mL DAG in 20 mM HEPES, pH 7.4, 0.3% CHAPS).
SelectScreen® Kinase Profiling Service uses XLfit from IDBS. The dose response curve is curve fit to model number 205 (sigmoidal dose-response model).

[2] = biological target: T1, potassium ion channel hERG (human Ether-á-go-go-Related Gene) (Homo sapiens, UniProt Q12809); test: Assay 5 - hERG assay (SyncroPatch 384PE patch clamp, CHO cells); assay type: cell-based; details: geometric mean, CHO cells over-expressing hERG, read-out: Assay 5 (hERG Hu CHO IF EPh CR-Syncro) GMean IC50
T1 construct: expressed in transfected cells; host or cells: Chinese hamster ovary K1 (CHO)
T1 sequence (Q12809 whole entry): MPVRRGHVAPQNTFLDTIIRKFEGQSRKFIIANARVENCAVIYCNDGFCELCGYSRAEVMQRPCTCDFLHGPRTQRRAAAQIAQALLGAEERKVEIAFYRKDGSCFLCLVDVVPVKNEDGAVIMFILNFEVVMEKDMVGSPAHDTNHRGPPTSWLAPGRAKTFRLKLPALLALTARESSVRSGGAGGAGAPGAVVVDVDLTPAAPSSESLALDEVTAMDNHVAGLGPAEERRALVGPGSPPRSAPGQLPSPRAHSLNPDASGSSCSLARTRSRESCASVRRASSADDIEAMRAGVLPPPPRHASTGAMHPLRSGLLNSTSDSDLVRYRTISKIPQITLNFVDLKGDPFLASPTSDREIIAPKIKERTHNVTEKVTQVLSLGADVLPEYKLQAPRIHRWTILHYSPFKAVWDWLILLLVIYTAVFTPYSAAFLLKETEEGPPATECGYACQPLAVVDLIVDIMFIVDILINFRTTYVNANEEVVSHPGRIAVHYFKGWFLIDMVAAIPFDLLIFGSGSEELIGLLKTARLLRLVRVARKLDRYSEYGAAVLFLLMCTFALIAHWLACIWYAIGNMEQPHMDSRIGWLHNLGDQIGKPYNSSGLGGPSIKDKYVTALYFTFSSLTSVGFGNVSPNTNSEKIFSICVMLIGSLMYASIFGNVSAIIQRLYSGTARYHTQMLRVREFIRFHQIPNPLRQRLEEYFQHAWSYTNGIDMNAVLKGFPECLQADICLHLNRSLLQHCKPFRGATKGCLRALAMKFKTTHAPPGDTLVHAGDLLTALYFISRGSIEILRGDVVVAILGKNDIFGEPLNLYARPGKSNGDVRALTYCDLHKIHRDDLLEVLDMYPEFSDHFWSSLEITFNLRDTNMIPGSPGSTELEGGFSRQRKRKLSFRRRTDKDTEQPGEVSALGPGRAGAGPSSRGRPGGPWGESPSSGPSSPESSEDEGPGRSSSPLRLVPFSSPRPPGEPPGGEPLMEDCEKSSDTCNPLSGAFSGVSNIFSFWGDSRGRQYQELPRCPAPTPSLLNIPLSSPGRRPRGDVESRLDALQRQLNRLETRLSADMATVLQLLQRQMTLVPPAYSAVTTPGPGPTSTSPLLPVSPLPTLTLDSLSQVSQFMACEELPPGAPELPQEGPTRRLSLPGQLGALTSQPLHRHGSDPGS
Description: Assay 5—hERG Assay (Human Ether-á-go-go-Related Gene)
This assay (human Ether-á-go-go-Related Gene) measures activity of the compounds at the potassium ion channel hERG (human Ether-á-go-go-Related Gene).
Experiments were performed on the SyncroPatch 384PE high throughput patch clamp platform at room temperature and medium resistance chips with 4 patch holes per site. Chinese hamster ovary K1 (CHO) cell lines over-expressing the ion channel of choice (hERG) were used in assay-ready format and kept in liquid nitrogen or were used from live culture. Cells were either thawed and diluted in HBSS or were detached from flasks and resuspended in HBSS. HBSS comprised 140 mM NaCl, 4 mM KCl, 10 mM HEPES and 5 mM Glucose (pH 7.4). The internal patch clamp solution was KF 120 mM, KCl 20 mM, HEPES 10 mM, EGTA 10 mM, and 25 μM Escin (pH 7.2). After the sealing process was complete, the external solution was exchanged for external patch clamp solution comprising NaCl 80 mM, KCl 4 mM, HEPES 10 mM, CaCl2 2 mM, MgCl2 1 mM, glucose 5 mM, and NMDG 60 mM (pH 7.4). All solutions were stored at room temperature, except Escin, which was stored at 4° C. All test compounds were dispensed in greiner-bio 384 well plates and tested in a 6 point cumulative assay (final DMSO concentration 0.33%). Only wells that passed previously agreed acceptance criteria for this platform were used in this analysis (30 MegaOhm seal resistance, Z prime>0.4 and current size>0.2 nA).

PCSK9 [3] = biological target: T2, PCSK9 (Homo sapiens, UniProt Q8NBP7, G670E/V474I); test: cell-based
Target sequence in this assay (Q8NBP7 31-152): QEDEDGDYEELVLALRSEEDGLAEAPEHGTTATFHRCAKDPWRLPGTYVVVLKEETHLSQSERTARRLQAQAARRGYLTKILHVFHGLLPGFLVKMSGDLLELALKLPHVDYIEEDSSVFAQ
Target sequence in this assay (Q8NBP7 153-692 V474I/G670E): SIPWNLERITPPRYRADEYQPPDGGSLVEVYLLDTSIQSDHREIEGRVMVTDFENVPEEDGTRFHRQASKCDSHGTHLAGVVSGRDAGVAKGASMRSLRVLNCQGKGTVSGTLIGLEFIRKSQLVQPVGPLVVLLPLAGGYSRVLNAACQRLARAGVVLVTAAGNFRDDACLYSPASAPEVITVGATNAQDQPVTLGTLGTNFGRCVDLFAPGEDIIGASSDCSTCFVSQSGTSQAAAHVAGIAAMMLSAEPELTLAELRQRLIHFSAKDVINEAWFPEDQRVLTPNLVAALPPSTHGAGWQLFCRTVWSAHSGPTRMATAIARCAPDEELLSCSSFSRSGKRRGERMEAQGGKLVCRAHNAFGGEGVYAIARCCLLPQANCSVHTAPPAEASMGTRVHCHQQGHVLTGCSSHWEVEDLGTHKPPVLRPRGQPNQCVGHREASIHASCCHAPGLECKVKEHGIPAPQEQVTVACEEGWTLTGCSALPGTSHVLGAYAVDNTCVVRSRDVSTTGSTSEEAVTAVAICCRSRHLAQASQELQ
Description: This assay measures for PCSK9 antagonist activity based on a test compound's capacity to restore LDL-C uptake in HepG2 cells. The assay is based on exogenous PCSK9 and LDL-C complexed with a pH-sensitive dye. Outside the cells, at neutral pH, the pHrodo Red-LDL is dimly fluorescent but upon LDLR mediated endocytosis it fluoresces brightly. PCSK9 traffics the LDLR to intracellular degradation and reduces uptake of LDL-C. Inhibition of PCSK9 reduces LDLR degradation and the increased LDL-C uptake is quantified by fluorescence microscopy.
Cell medium: MEM supplemented with 10% FBS, 1× NEAA and Sodium Pyruvate
Assay medium: OptiMem supplemented with penicillin/streptomycin
Cells: HepG2 (ATCC #HB-8065)
Cryopreserved HepG2 cells were thawed in assay medium and centrifuged for 5 min at 250 g. Supernatant was discarded and the cell pellet resuspended in cell medium and counted with a Nucleocounter. Cells were again centrifuged 5 min at 250 g and the pellet was resuspended to 500000 cells/mL in assay medium. • 2. 20 μL of above cell mix was dispensed into black pclear TC treated 384 well plates with Multidrop Combi and left at room temperature for 20 minutes. • 3. Plates were incubated at 37° C., 5% CO2 for 24 h
Test compounds were prepared in concentration response in DMSO with a half-log dilution factor in DMSO in Echo 384 LDV plates starting at 10 mM. • 2. 30 nL of above test compounds were dispensed with Echo 655 to cells for a top concentration of 10 μM • 3. […] Plates were incubated at 37° C., 5% CO2 for 24 h
10 μL pHrodo Red-LDL in assay medium was dispensed to cells with Multidrop Combi for 6 μg/mL • 2. Plates were incubated at 37° C., 5% CO2 and imaged with the Incucyte S3 after 4 h and 24 h
Image data was processed using Incucyte 2021, a software to identify cells and red fluorescent intensity. Screener was used to further process data. Data was normalized as % effect of the signal between median values of the on-plate controls of DMSO and 100 nM Evolocumab according to the formula % effect=−100*(x−DMSO)/(Evolocumab−DMSO) where x equals the measured signal. Concentration response data of the normalized values were fitted using a four-parameter logistic fit.

PCSK9 [4] = biological target: T2, PCSK9; test: biochemical
Target sequence in this assay (Q8NBP7 with tags, fused parts or gaps V474I/G670E): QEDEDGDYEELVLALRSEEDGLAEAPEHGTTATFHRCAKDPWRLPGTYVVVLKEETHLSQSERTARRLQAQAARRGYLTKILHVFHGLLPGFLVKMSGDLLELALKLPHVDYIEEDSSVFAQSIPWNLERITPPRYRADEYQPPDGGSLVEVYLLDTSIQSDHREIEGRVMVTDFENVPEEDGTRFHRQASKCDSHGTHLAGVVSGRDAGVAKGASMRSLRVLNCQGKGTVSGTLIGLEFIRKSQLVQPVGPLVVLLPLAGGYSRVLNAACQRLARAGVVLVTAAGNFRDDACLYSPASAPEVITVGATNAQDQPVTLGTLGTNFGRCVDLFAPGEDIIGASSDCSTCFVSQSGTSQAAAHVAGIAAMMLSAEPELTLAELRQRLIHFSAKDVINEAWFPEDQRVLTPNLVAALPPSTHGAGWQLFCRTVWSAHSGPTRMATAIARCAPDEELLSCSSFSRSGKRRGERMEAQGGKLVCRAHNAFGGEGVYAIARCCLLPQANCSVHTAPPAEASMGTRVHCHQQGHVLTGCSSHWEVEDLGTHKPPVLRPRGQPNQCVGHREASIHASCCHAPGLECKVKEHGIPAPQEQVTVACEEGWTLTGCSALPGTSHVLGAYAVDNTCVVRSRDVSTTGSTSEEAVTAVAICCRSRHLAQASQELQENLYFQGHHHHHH

GSK3b (Glycogen synthase kinase-3 beta), sequence (P49841 whole entry): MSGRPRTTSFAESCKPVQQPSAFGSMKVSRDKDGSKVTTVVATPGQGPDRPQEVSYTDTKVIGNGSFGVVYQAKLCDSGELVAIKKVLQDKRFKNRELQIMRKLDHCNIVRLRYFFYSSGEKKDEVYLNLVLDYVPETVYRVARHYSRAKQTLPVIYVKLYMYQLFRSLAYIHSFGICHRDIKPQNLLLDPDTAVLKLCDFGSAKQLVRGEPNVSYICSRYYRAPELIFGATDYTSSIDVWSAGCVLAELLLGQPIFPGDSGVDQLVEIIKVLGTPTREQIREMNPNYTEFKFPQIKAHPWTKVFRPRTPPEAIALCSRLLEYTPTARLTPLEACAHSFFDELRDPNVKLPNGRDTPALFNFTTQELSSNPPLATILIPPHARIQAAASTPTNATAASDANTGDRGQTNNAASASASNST

Compound	IC50 [1]	IC50 [2]	IC50 (PCSK9 [3])	IC50 (PCSK9 [4])
CCc1cnc2[nH]c(N[C@H]3CC[C@H](Nc4ccc(-n5ccccc5=O)cn4)C3)nc2c1 [Example 56, 6′-(((1S,3S)-3-((6-Ethyl-3H-imidazo[4,5-b]pyridin-2-yl)amino)cyclopentyl)amino)-2H-[1,3′-bipyridin]-2-one]	3.13 µM	> 40000 nM	395 nM	3.1 nM
O=c1c(OC(F)(F)F)cccn1-c1ccc(N[C@H]2CC[C@H](Nc3nc4cccnc4[nH]3)C2)nc1 [Example 63, 6′-(((1S,3S)-3-((3H-Imidazo[4,5-b]pyridin-2-yl)amino)cyclopentyl)amino)-3-(trifluoromethoxy)-2H-[1,3′-bipyridin]-2-one]	> 10 µM	> 40000 nM	51 nM	2.1 nM
Cn1cccc(-c2cnc(N[C@H]3CC[C@H](Nc4nc5cccnc5[nH]4)C3)nc2)c1=O [Example 39, 3-(2-(((1S,3S)-3-((3H-Imidazo[4,5-b]pyridin-2-yl)amino)cyclopentyl)amino)pyrimidin-5-yl)-1-methylpyridin-2(1H)-one]	> 10 µM	> 40000 nM	93 nM	6.1 nM
COc1ccc(=O)n(-c2ccc(N[C@H]3CC[C@H](Nc4nc5cccnc5o4)C3)nc2)c1 [Example 14, 5-Methoxy-6′-(((1S,3S)-3-(oxazolo[5,4-b]pyridin-2-ylamino)cyclopentyl)amino)-2H-[1,3′-bipyridin]-2-one]	0.423 µM	> 40000 nM	632 nM	25.5 nM
O=c1ccccn1-c1ccc(N[C@H]2CC[C@H](Nc3nc4cc(Br)cnc4[nH]3)C2)nc1 [Example 54, 6′-(((1S,3S)-3-((6-Bromo-3H-imidazo[4,5-b]pyridin-2-yl)amino)cyclopentyl)amino)-2H-[1,3′-bipyridin]-2-one]	0.306 µM	> 40100 nM	41 nM	0.7 nM
O=c1c(C(F)(F)F)cccn1-c1ccc(N[C@H]2CC[C@H](Nc3nc4cccnc4[nH]3)C2)nc1 [Example 64, 6′-(((1S,3S)-3-((3H-Imidazo[4,5-b]pyridin-2-yl)amino)cyclopentyl)amino)-3-(trifluoromethyl)-2H-[1,3′-bipyridin]-2-one]	> 10 µM	> 40000 nM	99 nM	1.7 nM
COc1cccn(-c2ccc(N[C@H]3CC[C@H](Nc4nc5cccnc5[nH]4)C3)nc2)c1=O [Example 41, 6′-(((1S,3S)-3-((3H-Imidazo[4,5-b]pyridin-2-yl)amino)cyclopentyl)amino)-3-methoxy-2H-[1,3′-bipyridin]-2-one]	0.066 µM	> 40000 nM	186 nM	3.5 nM
COc1ccc(=O)n(-c2ccc(N[C@H]3CC[C@H](Nc4nc5cccnc5[nH]4)C3)nc2)c1 [Example 72, 6′-(((1S,3S)-3-((3H-Imidazo[4,5-b]pyridin-2-yl)amino)cyclopentyl)amino)-5-methoxy-2H-[1,3′-bipyridin]-2-one]	0.01 µM	> 40000 nM	163 nM	5 nM
O=c1ccccn1-c1ccc(N[C@H]2CC[C@H](Nc3nc4c(Cl)c(Cl)cnc4[nH]3)C2)nc1 [Example 50, 6′-(((1S,3S)-3-((6,7-Dichloro-3H-imidazo[4,5-b]pyridin-2-yl)amino)cyclopentyl)amino)-2H-[1,3′-bipyridin]-2-one]	0.024 µM	32000 nM	190 nM	10.5 nM
N#Cc1ccc2nc(N[C@H]3CC[C@H](Nc4ccc(-n5ccccc5=O)cn4)C3)oc2c1 [Example 5, 2-(((1S,3S)-3-((2-Oxo-2H-[1,3′-bipyridin]-6′-yl)amino)cyclopentyl)amino)benzo[d]oxazole-6-carbonitrile]	5.52 µM	6000 nM	1720 nM	8.9 nM
Cc1cccn(-c2ccc(N[C@H]3CC[C@H](Nc4nc5cccnc5s4)C3)nc2)c1=O [Example 22, 3-Methyl-6′-(((1S,3S)-3-(thiazolo[5,4-b]pyridin-2-ylamino)cyclopentyl)amino)-2H-[1,3′-bipyridin]-2-one]	> 10 µM	25700 nM	54 nM	1.2 nM
O=c1c(OC(F)F)cccn1-c1ccc(N[C@H]2CC[C@H](Nc3nc4cccnc4s3)C2)nc1 [Example 81, 3-(Difluoromethoxy)-6′-(((1S,3S)-3-(thiazolo[5,4-b]pyridin-2-ylamino)cyclopentyl)amino)-2H-[1,3′-bipyridin]-2-one]	> 10 µM	6120 nM	108 nM	1.5 nM
O=c1ccccn1-c1ccc(N[C@H]2CC[C@H](Nc3nc4cc(F)cnc4[nH]3)C2)nc1 [Example 48, 6′-(((1S,3S)-3-((6-Fluoro-3H-imidazo[4,5-b]pyridin-2-yl)amino)cyclopentyl)amino)-2H-[1,3′-bipyridin]-2-one]	0.805 µM	> 40000 nM	100 nM	2.1 nM
O=c1ccc(-c2nn[nH]n2)cn1-c1ccc(N[C@H]2CC[C@H](Nc3nc4cccnc4[nH]3)C2)nc1 [Example 86, 6′-(((1S,3S)-3-((3H-Imidazo[4,5-b]pyridin-2-yl)amino)cyclopentyl)amino)-5-(2H-tetrazol-5-yl)-2H-[1,3′-bipyridin]-2-one]			187 nM	3.5 nM
O=c1cccnn1-c1cnc(N[C@H]2CC[C@H](Nc3nc4cccnc4[nH]3)C2)nc1 [Example 31, 2-(2-(((1S,3S)-3-((3H-Imidazo[4,5-b]pyridin-2-yl)amino)cyclopentyl)amino)pyrimidin-5-yl)pyridazin-3(2H)-one]	> 10 µM	> 40100 nM		25.1 nM
N#Cc1ccc2sc(N[C@H]3CC[C@H](Nc4ccc(-n5ccccc5=O)cn4)C3)nc2c1 [Example 9, 2-(((1S,3S)-3-((2-Oxo-2H-[1,3′-bipyridin]-6′-yl)amino)cyclopentyl)amino)benzo[d]thiazole-5-carbonitrile]	1.51 µM	3560 nM		17.9 nM
O=c1ccccn1-c1ccc(N[C@H]2CC[C@H](Nc3nc4cc(C5CC5)cnc4[nH]3)C2)nc1 [Example 55, 6′-(((1S,3S)-3-((6-Cyclopropyl-3H-imidazo[4,5-b]pyridin-2-yl)amino)cyclopentyl)amino)-2H-[1,3′-bipyridin]-2-one]	1.77 µM	> 40000 nM		2.6 nM
O=c1ccccn1-c1ccc(N[C@H]2CC[C@H](Nc3nc4ncccc4o3)C2)nc1 [Compound 89, 6′-(((1S,3S)-3-(Oxazolo[4,5-b]pyridin-2-ylamino)cyclopentyl)amino)-2H-[1,3′-bipyridin]-2-one]	> 10 µM	> 40100 nM		259 nM
N#Cc1ccc(=O)n(-c2ccc(N[C@H]3CC[C@H](Nc4nc5cccnc5o4)C3)nc2)c1 [Example 17, 6′-(((1S,3S)-3-(Oxazolo[5,4-b]pyridin-2-ylamino)cyclopentyl)amino)-2-oxo-2H-[1,3′-bipyridine]-5-carbonitrile]	> 10 µM	> 40100 nM		30.5 nM
Cc1ccc2nc(N[C@H]3CC[C@H](Nc4ccc(-n5ccccc5=O)cn4)C3)sc2c1 [Example 8, 6′-(((1S,3S)-3-((6-Methylbenzo[d]thiazol-2-yl)amino)cyclopentyl)amino)-2H-[1,3′-bipyridin]-2-one]	> 10 µM	6320 nM		2080 nM
